Measured values published in patent publication US20030144249A1, “Use of organophosphorous compounds for producing a medicament for treating infections” (priority 2000, published 2003).
Counter-ions that a name gives are not always drawn.

How the values were obtained:
Zea mays [1] = assay: Herbicidal activity, soil, pre-emergence; assay type: in vivo; conditions: read-out: Herbicidal activity, Zea mays
Method: (§1) Herbicidal activity is determined using standard methods.
(§2) Substances 1 to 8 listed on page 5 are again investigated.

Xanthium strumarium [2] = assay: Herbicidal activity, soil, pre-emergence; assay type: in vivo; conditions: read-out: Herbicidal activity, Xanthium strumarium
Method: as §1, §2

Abutilon theophrasti [3] = assay: Herbicidal activity, soil, pre-emergence; assay type: in vivo; conditions: read-out: Herbicidal activity, Abutilon theophrasti
Method: as §1, §2

Alopecurus myosuroides [4] = assay: Herbicidal activity, soil, pre-emergence; assay type: in vivo; conditions: read-out: Herbicidal activity, Alopecurus myosuroides
Method: as §1, §2

Amaranthus retroflexus [5] = assay: Herbicidal activity, soil, pre-emergence; assay type: in vivo; conditions: read-out: Herbicidal activity, Amaranthus retroflexus
Method: as §1, §2

Setaria viridis [6] = assay: Herbicidal activity, soil, pre-emergence; assay type: in vivo; conditions: read-out: Herbicidal activity, Setaria viridis
Method: as §1, §2

Cyperus esculentus [7] = assay: Herbicidal activity, soil, pre-emergence; assay type: in vivo; conditions: read-out: Herbicidal activity, Cyperus esculentus
Method: as §1, §2

Galium aperine [8] = assay: Herbicidal activity, soil, pre-emergence; assay type: in vivo; conditions: read-out: Herbicidal activity, Galium aperine
Method: as §1, §2

Beta vulgaris [9] = assay: Herbicidal activity, soil, pre-emergence; assay type: in vivo; conditions: read-out: Herbicidal activity, Beta vulgaris
Method: as §1, §2

Sinapis arvensis [10] = assay: Herbicidal activity, soil, pre-emergence; assay type: in vivo; conditions: Mutarda arvensis, read-out: Herbicidal activity, Sinapis arvensis
Method: as §1, §2

Avena fatua [11] = assay: Herbicidal activity, soil, pre-emergence; assay type: in vivo; conditions: read-out: Herbicidal activity, Avena fatua
Method: as §1, §2

Rice = assay: Herbicidal activity, water, pre-emergence; assay type: in vivo; conditions: Oryza sativa, read-out: Herbicidal activity, Rice
Method: as §1, §2

Lepidium = assay: Herbicidal activity, water, pre-emergence; assay type: in vivo; conditions: read-out: Herbicidal activity, Lepidium
Method: as §1, §2

Echinochloa = assay: Herbicidal activity, water, pre-emergence; assay type: in vivo; conditions: read-out: Herbicidal activity, Echinochloa
Method: as §1, §2

Solanum = assay: Herbicidal activity, water, pre-emergence; assay type: in vivo; conditions: read-out: Herbicidal activity, Solanum
Method: as §1, §2

Zea mays [12] = assay: Herbicidal activity, soil, post-emergence; assay type: in vivo; conditions: read-out: Herbicidal activity, Zea mays
Method: as §1, §2

Xanthium strumarium [13] = assay: Herbicidal activity, soil, post-emergence; assay type: in vivo; conditions: read-out: Herbicidal activity, Xanthium strumarium
Method: as §1, §2

Abutilon theophrasti [14] = assay: Herbicidal activity, soil, post-emergence; assay type: in vivo; conditions: read-out: Herbicidal activity, Abutilon theophrasti
Method: as §1, §2

Alopecurus myosuroides [15] = assay: Herbicidal activity, soil, post-emergence; assay type: in vivo; conditions: read-out: Herbicidal activity, Alopecurus myosuroides
Method: as §1, §2

Amaranthus retroflexus [16] = assay: Herbicidal activity, soil, post-emergence; assay type: in vivo; conditions: read-out: Herbicidal activity, Amaranthus retroflexus
Method: as §1, §2

Setaria viridis [17] = assay: Herbicidal activity, soil, post-emergence; assay type: in vivo; conditions: read-out: Herbicidal activity, Setaria viridis
Method: as §1, §2

Cyperus esculentus [18] = assay: Herbicidal activity, soil, post-emergence; assay type: in vivo; conditions: read-out: Herbicidal activity, Cyperus esculentus
Method: as §1, §2

Galium aperine [19] = assay: Herbicidal activity, soil, post-emergence; assay type: in vivo; conditions: read-out: Herbicidal activity, Galium aperine
Method: as §1, §2

Beta vulgaris [20] = assay: Herbicidal activity, soil, post-emergence; assay type: in vivo; conditions: read-out: Herbicidal activity, Beta vulgaris
Method: as §1, §2

Sinapis arvensis [21] = assay: Herbicidal activity, soil, post-emergence; assay type: in vivo; conditions: Mutarda arvensis, read-out: Herbicidal activity, Sinapis arvensis
Method: as §1, §2

Avena fatua [22] = assay: Herbicidal activity, soil, post-emergence; assay type: in vivo; conditions: read-out: Herbicidal activity, Avena fatua
Method: as §1, §2

[23] = molecular target: T1, DOXP reductoisomerase from Helicobacter pylori (Helicobacter pylori, UniProt P56139); assay: DOXP reductoisomerase inhibition (NADPH oxidation at 365 nm); assay type: biochemical
T1 construct: made in house; host or cells: Helicobacter pylori (so in the source)
T1 sequence (P56139 1-368): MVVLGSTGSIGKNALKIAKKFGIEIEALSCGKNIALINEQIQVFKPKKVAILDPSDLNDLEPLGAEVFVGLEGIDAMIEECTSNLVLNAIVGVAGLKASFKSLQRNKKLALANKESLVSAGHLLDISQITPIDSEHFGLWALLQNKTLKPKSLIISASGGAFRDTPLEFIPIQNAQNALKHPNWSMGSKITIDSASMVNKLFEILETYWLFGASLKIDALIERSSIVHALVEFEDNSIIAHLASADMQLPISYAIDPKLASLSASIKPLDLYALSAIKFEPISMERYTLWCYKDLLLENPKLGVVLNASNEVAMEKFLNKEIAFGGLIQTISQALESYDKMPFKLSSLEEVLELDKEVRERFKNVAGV
Method: The DOXP reductoisomerase of Helicobacter pylori was expressed as a recombinant protein in Helicobacter pylori. The activity of DOXP reductoisomerase was determined in a batch containing 100 mM tris-HCl (pH=7.5), 1 mM MnCl2, 0.3 mM NADPH and 1 mM DOXP.
The oxidation of NADPH was here measured at 365 nm in a spectrophotometer. The inhibition studies were performed by measuring the activity of DOXP reductoisomerase in the presence of compounds 1 to 8 (see page 5) at various concentrations between 0. 1 and 100 μmol l^−1.

CP(=O)(CNCN(O)C(=O)CCCN1CCOCC1)Oc1ccccc1 (stereo not drawn) [Compound 4, N-[(4-N-Morpholinobutanoyl-N-hydroxy)aminomethyl]aminomethyl(methyl)phosphinic acid phenyl ester]
plant injury at 2000 g/ha (Zea mays [1]): 30%
pest or weed control at 2000 g/ha (Xanthium strumarium [2]): 0%
pest or weed control at 2000 g/ha (Abutilon theophrasti [3]): 0%
pest or weed control at 2000 g/ha (Alopecurus myosuroides [4]): 30%
pest or weed control at 2000 g/ha (Amaranthus retroflexus [5]): 20%
pest or weed control at 2000 g/ha (Setaria viridis [6]): 0%
pest or weed control at 2000 g/ha (Cyperus esculentus [7]): 0%
pest or weed control at 2000 g/ha (Galium aperine [8]): 0%
plant injury at 2000 g/ha (Beta vulgaris [9]): 60%
pest or weed control at 2000 g/ha (Sinapis arvensis [10]): 70%
pest or weed control at 2000 g/ha (Avena fatua [11]): 60%
plant injury at 4000 g/ha (Rice): 30%
pest or weed control at 4000 g/ha (Lepidium): 40%
pest or weed control at 4000 g/ha (Echinochloa): 70%
pest or weed control at 4000 g/ha (Solanum): 30%
plant injury at 2000 g/ha (Zea mays [12]): 70%
pest or weed control at 2000 g/ha (Xanthium strumarium [13]): 90%
pest or weed control at 2000 g/ha (Abutilon theophrasti [14]): 50%
pest or weed control at 2000 g/ha (Alopecurus myosuroides [15]): 70%
pest or weed control at 2000 g/ha (Amaranthus retroflexus [16]): 40%
pest or weed control at 2000 g/ha (Setaria viridis [17]): 90%
pest or weed control at 2000 g/ha (Cyperus esculentus [18]): 0%
pest or weed control at 2000 g/ha (Galium aperine [19]): 70%
plant injury at 2000 g/ha (Beta vulgaris [20]): 50%
pest or weed control at 2000 g/ha (Sinapis arvensis [21]): 80%
pest or weed control at 2000 g/ha (Avena fatua [22]): 70%
IC50 [23]: 110 nM

O=CN(O)CNCP(=O)(O)O [Compound 8]
plant injury at 1000 g/ha (Zea mays [1]): 30%
pest or weed control at 1000 g/ha (Xanthium strumarium [2]): 0%
pest or weed control at 1000 g/ha (Abutilon theophrasti [3]): 0%
pest or weed control at 1000 g/ha (Alopecurus myosuroides [4]): 30%
pest or weed control at 1000 g/ha (Amaranthus retroflexus [5]): 20%
pest or weed control at 1000 g/ha (Setaria viridis [6]): 0%
pest or weed control at 1000 g/ha (Cyperus esculentus [7]): 0%
pest or weed control at 1000 g/ha (Galium aperine [8]): 0%
plant injury at 1000 g/ha (Beta vulgaris [9]): 40%
pest or weed control at 1000 g/ha (Sinapis arvensis [10]): 30%
pest or weed control at 1000 g/ha (Avena fatua [11]): 30%
plant injury at 2000 g/ha (Rice): 30%
pest or weed control at 2000 g/ha (Lepidium): 30%
pest or weed control at 2000 g/ha (Echinochloa): 40%
pest or weed control at 2000 g/ha (Solanum): 30%
plant injury at 1000 g/ha (Zea mays [12]): 70%
pest or weed control at 1000 g/ha (Xanthium strumarium [13]): 90%
pest or weed control at 1000 g/ha (Abutilon theophrasti [14]): 50%
pest or weed control at 1000 g/ha (Alopecurus myosuroides [15]): 80%
pest or weed control at 1000 g/ha (Amaranthus retroflexus [16]): 50%
pest or weed control at 1000 g/ha (Setaria viridis [17]): 90%
pest or weed control at 1000 g/ha (Cyperus esculentus [18]): 0%
pest or weed control at 1000 g/ha (Galium aperine [19]): 70%
plant injury at 1000 g/ha (Beta vulgaris [20]): 50%
pest or weed control at 1000 g/ha (Sinapis arvensis [21]): 70%
pest or weed control at 1000 g/ha (Avena fatua [22]): 80%
IC50 [23]: 60 nM

CN(CN(O)C(=O)C1CCCCC1)CP(C)(=O)O [Compound 3, N-((N-Cyclohexanoyl-N-hydroxy)aminomethyl)-N-methyl(aminomethylphosphinic acid, sodium salt]
plant injury at 2000 g/ha (Zea mays [1]): 0%
pest or weed control at 2000 g/ha (Xanthium strumarium [2]): 0%
pest or weed control at 2000 g/ha (Abutilon theophrasti [3]): 0%
pest or weed control at 2000 g/ha (Alopecurus myosuroides [4]): 30%
pest or weed control at 2000 g/ha (Amaranthus retroflexus [5]): 0%
pest or weed control at 2000 g/ha (Setaria viridis [6]): 0%
pest or weed control at 2000 g/ha (Cyperus esculentus [7]): 0%
pest or weed control at 2000 g/ha (Galium aperine [8]): 0%
plant injury at 2000 g/ha (Beta vulgaris [9]): 30%
pest or weed control at 2000 g/ha (Sinapis arvensis [10]): 30%
pest or weed control at 2000 g/ha (Avena fatua [11]): 0%
plant injury at 4000 g/ha (Rice): 40%
pest or weed control at 4000 g/ha (Lepidium): 50%
pest or weed control at 4000 g/ha (Echinochloa): 50%
pest or weed control at 4000 g/ha (Solanum): 0%
plant injury at 2000 g/ha (Zea mays [12]): 70%
pest or weed control at 2000 g/ha (Xanthium strumarium [13]): 60%
pest or weed control at 2000 g/ha (Abutilon theophrasti [14]): 60%
pest or weed control at 2000 g/ha (Alopecurus myosuroides [15]): 60%
pest or weed control at 2000 g/ha (Amaranthus retroflexus [16]): 60%
pest or weed control at 2000 g/ha (Setaria viridis [17]): 70%
pest or weed control at 2000 g/ha (Cyperus esculentus [18]): 0%
pest or weed control at 2000 g/ha (Galium aperine [19]): 60%
plant injury at 2000 g/ha (Beta vulgaris [20]): 60%
pest or weed control at 2000 g/ha (Sinapis arvensis [21]): 80%
pest or weed control at 2000 g/ha (Avena fatua [22]): 70%
IC50 [23]: 170 nM

CP(=O)(O)C(O)CNCN(O)C(=O)c1ccco1 (stereo not drawn) [Compound 5, 2-(N-2-Furanoyl-N-hydroxy-aminomethyl)amino-1-hydroxyethylmethylphosphinic acid, sodium salt]
plant injury at 2000 g/ha (Zea mays [1]): 0%
pest or weed control at 2000 g/ha (Xanthium strumarium [2]): 0%
pest or weed control at 2000 g/ha (Abutilon theophrasti [3]): 0%
pest or weed control at 2000 g/ha (Alopecurus myosuroides [4]): 50%
pest or weed control at 2000 g/ha (Amaranthus retroflexus [5]): 0%
pest or weed control at 2000 g/ha (Setaria viridis [6]): 0%
pest or weed control at 2000 g/ha (Cyperus esculentus [7]): 0%
pest or weed control at 2000 g/ha (Galium aperine [8]): 0%
plant injury at 2000 g/ha (Beta vulgaris [9]): 30%
pest or weed control at 2000 g/ha (Sinapis arvensis [10]): 50%
pest or weed control at 2000 g/ha (Avena fatua [11]): 0%
plant injury at 4000 g/ha (Rice): 40%
pest or weed control at 4000 g/ha (Lepidium): 40%
pest or weed control at 4000 g/ha (Echinochloa): 80%
pest or weed control at 4000 g/ha (Solanum): 0%
plant injury at 2000 g/ha (Zea mays [12]): 80%
pest or weed control at 2000 g/ha (Xanthium strumarium [13]): 60%
pest or weed control at 2000 g/ha (Abutilon theophrasti [14]): 40%
pest or weed control at 2000 g/ha (Alopecurus myosuroides [15]): 70%
pest or weed control at 2000 g/ha (Amaranthus retroflexus [16]): 30%
pest or weed control at 2000 g/ha (Setaria viridis [17]): 95%
pest or weed control at 2000 g/ha (Cyperus esculentus [18]): 0%
pest or weed control at 2000 g/ha (Galium aperine [19]): 80%
plant injury at 2000 g/ha (Beta vulgaris [20]): 40%
pest or weed control at 2000 g/ha (Sinapis arvensis [21]): 90%
pest or weed control at 2000 g/ha (Avena fatua [22]): 80%
IC50 [23]: 130 nM
